Here are results for 10 compounds from patent EP0149140A2, “Novel compounds” (BEECHAM GROUP PLC, priority 1983, dated 1985).

This test deals with E coli B44 (09:K90:K99). The test can be described thus: Protection of Neonatal Mice from Lethal Enteropathogenic E coli Infection. The conditions noted are these: 4 day old mice, % reduction in mortality vs placebo, 10 days; for inhibition in vivo at 0.08 mg/kg: 0.08 mg/kg (dose of hydrochloride salt) b.i.d. for four days commencing 16 hours after infection; for inhibition in vivo at 0.4 mg/kg: 0.4 mg/kg (dose of hydrochloride salt) b.i.d. for four days commencing 16 hours after infection; for inhibition in vivo at 2 mg/kg: 2 mg/kg (dose of hydrochloride salt) b.i.d. for four days commencing 16 hours after infection; for Protection %: Table 2, 10 mg/kg (dose of hydrochloride salt) b.i.d. for four days commencing 16 hours after infection. The test is classed as in vivo. The procedure: 4 day old mice were dosed orally with 50µl of phosphate buffered saline containing 1 x 10^5 organisms/ml of E coli B44 (09:K90:K99) an enteropathogenic strain originally isolated from a scouring calf. The mice were then dosed b.i.d. with either placebo or drug as the hydrochloride salt for four days commencing 16 hours after infection. The animals were left with their mothers throughout the experiment and a daily record of deaths were made. The experiment was terminated 10 days after infection of the mice.
The mortality in the drug group was then compared with the mortality in the placebo group using the following formula:- [formula] where Mp = mortality in group receiving placebo Md = mortality in group receiving drug
Statistical analysis was performed using 2 x 2 contingency tables (single tailed 'p'). Results are given in Tables 1 and 2. 'Protection %' is the same as '% Reduction in mortality' above.

Where [1] appears, read: Mus musculus, intraduodenal, 240 h, Table 1.

Usually inhibition in vivo stands for the relative decrease from the control value, in per cent. Turning to `CNC(=S)Nc1cc(Cl)c(N=C2NCCN2)c(Cl)c1`, under setting [1], the inhibition in vivo at 0.08 mg/kg was 6% and the inhibition in vivo at 0.4 mg/kg was 6%.

For the compound `CSC(=Nc1cc(Cl)c(N=C2NCCN2)c(Cl)c1)N(C)C`, the inhibition in vivo at 0.08 mg/kg under setting [1] worked out at 13%.

For the compound `S=C(NCc1ccccc1)Nc1cc(Cl)c(N=C2NCCN2)c(Cl)c1`, the inhibition in vivo at 0.4 mg/kg under setting [1] worked out at 21%.

As for `S=C(Nc1cc(Cl)c(N=C2NCCN2)c(Cl)c1)NC1CCCCC1`, the inhibition in vivo at 0.08 mg/kg under setting [1] is 6%.

As for `CN=C(Nc1cc(Cl)c(N=C2NCCN2)c(Cl)c1)SC`, under setting [1], the inhibition in vivo at 0.08 mg/kg worked out at 22%, the inhibition in vivo at 0.4 mg/kg stood at 26% and the inhibition in vivo at 2 mg/kg is 13%.

Consider `CSC(=NCc1ccc(F)cc1)Nc1cc(Cl)c(N=C2NCCN2)c(Cl)c1`, for which, where the note is “Mus musculus, intraduodenal, 240 h, Table 1, 0.04 mg/kg (dose of hydrochloride salt) b.i.d. for four days commencing 16 hours after infection”, the inhibition in vivo at 0.04 mg/kg worked out at 40%. The inhibition in vivo at 0.08 mg/kg under setting [1] turned out to be 29%.

As to `CNC(=S)Nc1ccc(C)c(N=C2NCCN2)c1`, the Protection % is listed as 5%.

For `CNC(=S)Nc1cc(C)c(N=C2NCCN2)c(C)c1`, under setting [1], the inhibition in vivo at 0.4 mg/kg amounted to 43% and the inhibition in vivo at 2 mg/kg came out at 69%.

Consider `CN=C(Nc1ccc(C)c(N=C2NCCN2)c1)SC`, for which the Protection % is listed as 13%.

For `Cc1cc(NC(=S)NCc2ccc(F)cc2)cc(C)c1N=C1NCCN1`, under setting [1], the inhibition in vivo at 2 mg/kg amounted to 11%.
